Test results published in PMC12715788, “Unraveling the Potential of Small Molecule Heparin Glycomimetics in Neuroregenerative Therapeutics” (Journal of the American Chemical Society, 2025).
“And” between values parts separate entries of the source, which are not always exact repeats. Identical values can stand only once. “Also recorded” adds a separate entry of the source.

Legend:
FGF-2 [1] = target: T1, FGF-2 (Homo sapiens, UniProt P09038); assay: BLI competition assay with immobilized native HS for FGF-2 binding; conditions: for competition with immobilized native HS for FGF-2 binding, signal intensity: FGF-2 50 nM premixed with varying concentrations; for IC50: FGF-2 50 nM, fixed association time t = 240 s, read-out: Apparent IC50(t), competition with immobilized native HS for FGF-2 binding
Source text: We next examined the functional relevance of the synthetic HS glycomimetics by testing their ability to compete with native HS for FGF-2 binding using competition assays. Although direct binding assays measure the intrinsic affinity of HS glycomimetics for FGF-2, they are limited in representing the complex, multimolecular environment of biological systems. In vivo, FGF-2 activity is tightly regulated by its interactions with GAGs, which are abundant on cell surfaces and in the ECM. These interactions stabilize FGF-2 and facilitate its dimerization with FGF receptors (FGFRs), a requirement for effective signal transduction. , Thus, therapeutic candidates targeting FGF-2 must be evaluated not only for direct binding but also for their ability to modulate or disrupt GAG-mediated interactions. Therefore, we performed competition assays in which native HS was immobilized on the sensor surface. Solutions containing a fixed concentration of FGF-2 (50 nM) were premixed with varying concentrations of HS glycomimetics, functioning as inhibitors in this context, (M1, D1, D2, D3, and T1) and also with the heparin hexasaccharide (H1) (GlcNS6S-GlcA-GlcNS3S6S-IdoA2S-GlcNS6S-GlcA), a well-studied HS glycomimetic in the literature, as a positive control (Figure B). […] The progressive decrease in signal intensity with increasing inhibitor concentration directly reflects competition with immobilized HS for FGF-2 binding.

FGF-1 = FGF-1 (Homo sapiens, UniProt P05230); assay: Far-UV CD spectroscopy and CD thermal denaturation; conditions: CD thermal denaturation 10–90 °C; protein with sugar, 1:3 molar ratio
Source text: (§1) To select a lead compound, we complemented the affinity data with a series of studies evaluating the structural and functional implications of protein-HS glycomimetic interactions. We assessed the therapeutic safety profile of our HS glycomimetics. We also employed circular dichroism (CD) spectroscopy to assess secondary structural changes in protein conformation upon binding to native HS and HS glycomimetics. Since native HS alone produces only a minimal signal, it was ensured that its contribution would not interfere with protein-sugar complex spectra. Therefore, only the far-UV CD spectra of bare proteins and their sugar complexes were recorded. […] Upon incubation with sugars (1:3 molar ratio), significant spectral changes were observed, indicating sugar-induced alterations in secondary structure (Figure A).
(§2) We also evaluated the thermal stability of the proteins and their sugar complexes by CD-based thermal denaturation experiments. The spectra were recorded across a temperature range of 10–90 °C (Figure B). For all proteins except AT-III, the unfolding profiles were analyzed to determine the melting temperature (T m), representing the midpoint of the transition from the folded to the unfolded state, an indicator of structural integrity and resistance to thermal denaturation. The calculated values are compiled in Table .

FGF-2 [2] = target: T1, FGF-2; assay: Far-UV CD spectroscopy and CD thermal denaturation; conditions: CD thermal denaturation 10–90 °C; protein with sugar, 1:3 molar ratio
Source text: as §1, §2

[3] = system: citrated pooled rat plasma; assay: Activated partial thromboplastin time (aPTT) assay; conditions: citrated pooled rat plasma; highest concentration tested; control 22 s
Source text: To complement these findings, we performed an activated partial thromboplastin time (aPTT) assay in citrated pooled rat plasma to assess the overall impact of the compounds on the intrinsic coagulation pathway. This global clotting assay measures the time required for fibrin formation and is sensitive to anticoagulant effects. Figure F,G compare the effects of UFH, heparan sulfate, Fondaparinux, and the synthetic glycomimetics when supplemented into citrated plasma. […] As expected, UFH produced a strong, concentration-dependent anticoagulant response, prolonging the mean clotting time to 271 s at the highest concentration tested, while heparan sulfate and Fondaparinux induced weaker but measurable effects (83 and 37 s, respectively). […] The results further confirm that selective sulfation patterns can decouple GF recognition from anticoagulant function, an essential prerequisite for their translational application in regenerative medicine. […] These interactions are in line with nonspecific electrostatic binding, a feature of highly sulfated oligosaccharides known to engage different proteins via charge-based, rather than specific, biologically targeted interactions. Thus, to avoid potential off-target effects associated with highly sulfated analogues, we selected the disaccharide D2 for subsequent biological experiments.

Factor Xa = assay: AT-III-mediated chromogenic substrate assay; type: biochemical; conditions: absorbance at 405 nm
Source text: (§3) Active coagulation factors cleave chromogenic peptide substrates, therefore producing p-nitroaniline, a yellow-colored product with a detectable absorbance signal at λ = 405 nm. Inhibitors like heparin-AT-III complexes decrease enzyme activity and so lower absorbance readings.

AT-III = AT-III (Homo sapiens, UniProt P01008); assay: BLI binding assay, sugars immobilized, protein as analyte
Experimental: We evaluated the binding affinity of native HS and synthetic HS glycomimetics (M1, D1, D2, D3, and T1) to these proteins using biolayer interferometry (BLI). The terminal amino groups of the sugars were immobilized onto the sensor surface using standard amine coupling chemistry, and binding assays were performed by introducing the proteins as analytes at varying concentrations (Figure A). The equilibrium dissociation constants (K D) were determined using the steady-state affinity curve fitting.

Factor IIa (thrombin) = assay: AT-III-mediated chromogenic substrate assay; type: biochemical; conditions: absorbance at 405 nm
Source text: as §3

[4] = system: rat dissociated hippocampal neurons; assay: Neurite morphometry in dissociated hippocampal neurons; type: cell-based; conditions: 24 h treatment, 1 day in vitro, D2 1 μM, FGF-2 40 ng/mL, mean ± SEM
Experimental: In the pursuit of this, we used rat dissociated hippocampal neurons as an in vitro model system. We assessed the impact of HS glycomimetics on neuronal morphology, using immunofluorescence imaging and quantitative morphometric analysis, and on synaptic functionality through electrophysiological monitoring of spontaneous neuronal activity.
During the first day of differentiation in vitro (Table S7.1 in SI), neurons were treated for 24 h with either control medium, glycomimetic D2 (1 μM), FGF-2 (40 ng/mL) alone, or a combination of FGF-2 and D2 (40 ng/mL and 1 μM, respectively). After treatments, cultures were fixed and immuno-labeled with antibodies against the neuronal marker β-Tubulin III to study cell morphology. […] Quantitative analysis further corroborated these observations (Figure B–C).

hippocampal neurons = assay: Patch clamp recording of spontaneous synaptic activity in hippocampal neurons; type: cell-based, rat; conditions: 24 h treatment, neurons at 8 days in vitro, voltage clamp −58 mV; mean ± SEM
Source text: In another set of experiments, we investigated the impact of D2+FGF-2, with respect to that of FGF-2 alone, on the formation of functionally active neuronal networks. To this aim, we used hippocampal neurons developed in vitro for 1 week, from which, through the single-cell patch clamp technique, we recorded in voltage clamp mode spontaneous synaptic activity. […] While neurons treated with FGF-2 alone presented sPSCs of fluctuating amplitude (in average 42 ± 5 pA) at a frequency of 1.23 ± 0.38 Hz, the coapplication of D2 with the growth factor induced a statistically significant enhancement of both these values (for D2+FGF-2, sPSCs frequency: 2.52 ± 0.47 Hz, and sPSCs amplitude: 75 ± 14 pA, p < 0.05 FGF-2 vs D2+FGF-2, Figure E–F).

FGF-1, sequence (P05230 whole entry, species assumed): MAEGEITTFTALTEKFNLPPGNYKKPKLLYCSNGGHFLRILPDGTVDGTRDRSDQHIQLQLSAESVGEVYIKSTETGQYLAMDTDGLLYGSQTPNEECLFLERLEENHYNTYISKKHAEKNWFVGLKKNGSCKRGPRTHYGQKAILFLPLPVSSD
T1 sequence (P09038 134-288 limits assumed, species assumed): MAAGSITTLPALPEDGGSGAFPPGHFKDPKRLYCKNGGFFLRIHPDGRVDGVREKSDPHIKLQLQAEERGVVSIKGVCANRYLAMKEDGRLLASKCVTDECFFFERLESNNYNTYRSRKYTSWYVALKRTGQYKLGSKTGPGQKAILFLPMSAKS
AT-III, sequence (P01008 33-464): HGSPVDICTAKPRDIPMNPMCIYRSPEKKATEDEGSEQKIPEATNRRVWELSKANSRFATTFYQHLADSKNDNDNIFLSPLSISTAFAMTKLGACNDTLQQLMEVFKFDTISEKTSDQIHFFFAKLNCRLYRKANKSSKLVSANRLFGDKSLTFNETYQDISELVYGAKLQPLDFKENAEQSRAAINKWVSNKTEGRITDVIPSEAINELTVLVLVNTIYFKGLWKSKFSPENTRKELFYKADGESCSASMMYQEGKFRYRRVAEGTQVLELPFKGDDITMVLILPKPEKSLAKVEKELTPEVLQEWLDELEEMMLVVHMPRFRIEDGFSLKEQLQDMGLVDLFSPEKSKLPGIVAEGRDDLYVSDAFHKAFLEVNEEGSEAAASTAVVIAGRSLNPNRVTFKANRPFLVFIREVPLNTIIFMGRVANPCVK

Molecule | competition with immobilized native HS for FGF-2 binding, signal intensity (FGF-2 [1]) | FGF-1 Sample Tm (FGF-1) | FGF-2 Sample Tm (FGF-2 [2]) | aPTT mean clotting time [3] [s] | IC50 (FGF-2 [1]) | also measured
CC(=O)N[C@H]1[C@@H](OCCN)O[C@H](CO)[C@@H](O[C@@H]2O[C@@H](C(=O)O)[C@@H](OS(=O)(=O)O)[C@H](O)[C@H]2OS(=O)(=O)O)[C@@H]1O [D1, IdoA2S4S-GlcNAc] | much weaker effect; also recorded: minimal inhibition | 44.5 °C and 44.5 ± 0.4 °C | 51.6 °C and 51.6 ± 1.9 °C | 22.5 |  | 
NCCCCCOC1OC(COS(=O)(=O)O)C(OC2OC(C(=O)NNS(=O)(=O)O)C(OS(=O)(=O)O)C(O)C2OS(=O)(=O)O)C(O)C1NS(=O)(=O)O (stereo not shown) [D3, GlcANS6S-GlcNS6S] | dose-dependent reduction in signal intensity | 45.3 °C and 45.3 ± 0.3 °C | 54.2 °C and 54.2 ± 1.2 °C | 25.3 | 84500 nM | 
CO[C@H]1O[C@H](COS(=O)(=O)O)[C@@H](O[C@@H]2O[C@@H](C(=O)O)[C@@H](O[C@H]3O[C@H](COS(=O)(=O)O)[C@@H](O[C@@H]4O[C@H](C(=O)O)[C@@H](O[C@H]5O[C@H](COS(=O)(=O)O)[C@@H](O)[C@H](O)[C@H]5NS(=O)(=O)O)[C@H](O)[C@H]4O)[C@H](OS(=O)(=O)O)[C@H]3NS(=O)(=O)O)[C@H](O)[C@H]2OS(=O)(=O)O)[C@H](O)[C@H]1NS(=O)(=O)O [Fondaparinux, reference compound] |  |  |  | 37 |  | AT-III-mediated Factor Xa activity (Factor Xa): selectively inhibited
CC(=O)N[C@H]1[C@@H](OCCN)O[C@H](COS(=O)(=O)O)[C@@H](O)[C@@H]1O [M1, GlcNAc6S] | much weaker effect; also recorded: minimal inhibition | 43.3 °C and 43.3 ± 0.4 °C | 50.7 °C and 50.7 ± 0.2 °C | 22 |  | 
NC[C@H]1O[C@H](O[C@H]2[C@H](OS(=O)(=O)O)[C@@H](OS(=O)(=O)O)[C@@H](O[C@H]3[C@H](OS(=O)(=O)O)[C@@H](OS(=O)(=O)O)[C@@H](O[C@H]4[C@H](OS(=O)(=O)O)[C@@H](OS(=O)(=O)O)[C@@H]5OC[C@H]4O5)O[C@@H]3COS(=O)(=O)O)O[C@@H]2COS(=O)(=O)O)[C@H](OS(=O)(=O)O)[C@@H](OS(=O)(=O)O)[C@@H]1OS(=O)(=O)O [T1, Glc2S3S-Glc2S3S6S-Glc2S3S6S-Glc2S3S] | dose-dependent reduction in signal intensity | 46.3 °C and 46.3 ± 0.5 °C | 59.3 °C and 59.3 ± 2.2 °C | 28.5 | 900 nM and 910 nM | binding to AT-III (AT-III): bound to AT-III; AT-III-mediated Factor IIa activity (Factor IIa (thrombin)): slight interactions; AT-III-mediated Factor Xa activity (Factor Xa): slight interactions
FGF-2: fibroblast growth factor-2, basic FGF, applied alone at 40 ng/mL |  |  |  |  |  | number of neurites emerging from the cell body ([4]; control 3.6 ± 0.22): 5.4 ± 0.28 neurites per neuron; length of the longest neurite ([4]; control 38 ± 2): 45 ± 4 μm; sPSCs amplitude (hippocampal neurons): 42 ± 5 pA; sPSCs frequency (hippocampal neurons): 1.23 ± 0.38 Hz
GlcNS6S-GlcA-GlcNS3S6S-IdoA2S-GlcNS6S-GlcA [H1, reference compound] |  |  |  |  | 2610 nM | 
